Laboratory results published in patent publication US10774046B2, “Inhibitors for the treatment of cancer and related methods” (UNIVERSITY OF LOUISVILLE RESEARCH FOUNDATION, INC., priority 2017, dated 2020).

Columns and labels:
H460 cells = experiment: cell cycle analysis by flow cytometry; assay type: cell-based, human
Experimental: To measure apoptosis, cells were stained with annexin V and propidium iodide and examined as previously described. For example, H460 cells were exposed to increasing concentrations of the PFKFB4 inhibitor (MPN-2), the PFKFB3 inhibitor PFK15 (Tocris) or both and viable cells were counted at 24, 48 and 72 hours. DMSO used as vehicle. For cell cycle experiments, cells were detached, washed with cold PBS and fixed in 70% ethanol (4° C., 30 minutes). The cells then were pelleted by centrifugation, resuspended in PBS containing PI and RNase A, incubated at 37° C. in the dark for 30 minutes and analyzed by flow cytometry (BD FACSCalibur). Data were analyzed using FlowJo software (TREE STAR Inc.). Results were calculated as the mean±SD of three experiments. The effects (Fa values) of the series of concentrations of MPN-2 and PFK-15 were examined individually and in combination at a constant ratio of 1:1.

cancer cells = experiment: anchorage independent growth as colonies in soft agar; assay type: cell-based; conditions: increasing concentrations
Experimental: Method: Cancer cells were plated in soft agar and the effects of increasing concentrations of Formula (VIII) on anchorage independent growth was examined. Briefly, a feeder layer of 0.6% agarose (Agar Noble, Becton Dickinson) in RPMI with 10% fetal bovine serum was plated in 6 cm plates containing vehicle (DMSO) or increasing concentrations of Formula (VIII). 1×10^4 cells were re-suspended in 0.3% agarose in RPMI/10% serum containing DMSO or increasing concentrations of Formula (VIII) and plated on top of the feeder layer. Cells were allowed to grow at 37° C. in 5% CO2 and agarose-containing media with DMSO+/−Formula (VIII) was replenished every 5 days until colonies became visible. Colonies were stained with MTT [3-(4,5-dimethylthiazol-2-yl)-2,5-diphenyl tetrazolium bromide] and counted in four random 1 cm^2 areas per plate under 40× magnification and enumerated.

SMILES: COc1cccc2c(NCCCCCO[N+](=O)[O-])ccnc12 [5MPN, 5-[(8-methoxyquinolin-4-yl)amino]pentyl nitrate]
- cell cycle distribution (H460 cells; H460, 10 μM 5MPN): G1 arrest
- effect of overexpression of PFKFB4 on G1 arrest (H460 cells; H460 transfected with PFKFB4, 10 μM 5MPN, 24 hours): reversed

SMILES: COc1cccc2c(NCCCCCNC(=O)C(F)(F)F)ccnc12 [Formula (VIII), 2,2,2-trifluoro-N-(5-((8-methoxyquinolin-4-yl)amino)pentyl)acetamide]
- anchorage independent growth (soft agar colonies) (cancer cells): inhibited the growth of cancer cells as soft agar colonies
